Entries after “also recorded” stand apart in the source; their conditions may differ.
Columns and labels:
p53 [1] = assay: suppression of p53-dependent transcriptional activation (lacZ, X-gal staining) in ConA cells treated with doxorubicin; type: cell-based, mouse; settings: 0.2 μg/ml doxorubicin, 24 hours; test compounds about 10 to about 20 μM
C8 cells [2] = assay: sensitivity to UV irradiation of C8 cells and of C8 with p53 inactivated by GSE56; type: cell-based, mouse
Excerpt: FIG. 4 illustrates that the antiapoptotic activity of PFT-α is p53 dependent, i.e., PFT-α specifically effects p53 wild-type cells.

p53 [3] = assay: gel shift assay of p53 DNA binding with ConA cell lysates; type: cell-based, mouse; settings: untreated or UV-irradiated ConA cells
Protocol: FIG. 6(d) illustrates that PFT-α changes the nuclear and cytoplasmic distribution of p53. Nuclear and cytoplasmic fractions were isolated from UV-treated ConA cells 6 hours after UV irradiation. p53 and p21^waf1 proteins were detected by immunoblotting. […] In particular, results of a gel shift assay using cell lysates from either untreated or UV-irradiated ConA cells grown in medium containing PFT-α are shown. […] The decline in the amount of bound DNA is proportional to the overall decrease in p53 content in the presence of PFT-α.

p53 [4] = assay: survival of mice after whole-body gamma irradiation; type: in vivo, mouse
Protocol: In particular, FIG. 7 illustrates that pifithrin-alpha protects mice from radiation-induced death. In this test, two different strains of mice (C57BL and Balb(c)) were treated with lethal and sublethal doses of whole-body gamma radiation. A comparison was made between (i) untreated unirradiated mice, (ii) unirradiated mice that received a single intraperitoneal (i.p.) injection of PFT-α, (iii) untreated gamma-irradiated mice, and (iv) mice injected intraperitoneally with PFT-α immediately before gamma irradiation.
In the plots of FIG. 7, whole-body gamma irradiated mice (60 total) were divided into four groups. Ten mice from each group were injected i.p. with pifithrin-alpha (2.2 mg/kg) five minutes prior to irradiation. […] The experiments were repeated at least three times with 10 mice per each experimental subgroup.

p53 [5] = assay: 14C-thymidine incorporation in tissues of gamma-irradiated mice (autoradiograms); type: in vivo, mouse; settings: 10 Gy; for p53-mediated growth arrest in vivo (14C-thymidine incorporation): single i.p. injection 2.2 mg/kg five minutes before irradiation, 2.2 mg/kg
Protocol: Four-week-old p53-deficient mice and p53 wild-type (wt) mice were whole body gamma irradiated (10 Gy). Pifithrin-alpha was injected in one of the p53 wild-type animals five minutes before irradiation. ^14C-thymidine (10 mCi per animal) was injected intraperitoneally into each mouse 8 hours after irradiation. The mice were sacrificed 24 hours after irradiation and whole body sectioned (25 μm thick) using cryostatic microtome were prepared and exposed to X-ray film to monitor the distribution of ^14C in the tissue. FIG. 8 presents autoradiograms of representative sections. Arrows indicate ^14C-thymidine incorporation in the skin and intestine.

p53 [6] = assay: tissue morphology and apoptosis (TUNEL staining) in small intestine epithelium of gamma-irradiated mice; type: in vivo, mouse; settings: C57BL6 wild-type, 24 hours after 10 Gy
Protocol: FIG. 9 contains photographs comparing tissue morphology and apoptosis (TUNEL staining) in the epithelium of the small intestine of C57BL6 wild-type mice (PFT-treated (+) and untreated (−)) 24 hours after 10 Gy of whole-body gamma irradiation. Areas of massive apoptosis are indicated by the arrows. The extensive apoptosis observed in the crypts and villi of the small intestine was abrogated in mice treated with PFT-α before irradiation, which correlates with the changes in thymidine incorporation illustrated in FIG. 8.

C8 cells [7] = assay: C8 cell survival after UV irradiation by time and duration of application (MTT assay); type: cell-based, mouse; settings: 10 μM; UV 25 J/m^2; MTT 48 hours after UV
Protocol: FIG. 11 includes a comparison of anti-apoptotic effect of PFT-α added at different time intervals to C8 cells treated with UV radiation. (25 J/m^2). Ten μM of PFT-α were added to the culture media at different time intervals (FIG. 11(a)).

p53 [8] = assay: long-term survival and cancer development of mice after whole body radiation; type: in vivo
Protocol: Both wild-type (wt) mice and p53-deficient mice were irradiated. One group of the wild-type mice were treated with PFT-α. […] In contrast, fifteen untreated wild-type mice died within 100 days. The p53-deficient mice were unaffected for about 125 days, then all expired over the next 25–30 days.
Suppression of p53 typically results in the survival of cells that otherwise are eliminated by p53, which can increase the risk of new cancer development. For example, p53-deficient mice are extremely sensitive to radiation-induced tumorigenesis. […] Thus, temporary suppression of p53 activity is different from p53 deficiency in terms of cancer predisposition.

With `Cc1ccc(C(=O)Cn2c3c(sc2=N)CCCC3)cc1` [PFT-α, 2-[2-imino-4,5,6,7-tetrahydro-1,3-benzothiazol-3(2H)-yl]-1-(4-methylphenyl)-1-ethanone] the “suppression of p53-dependent lacZ expression (X-gal)” value (p53 [1]) was “effectiveness of PFT-α in inhibiting p53”, the “sensitivity to UV irradiation of C8 with p53 inactivated by GSE56” value (C8 cells [2]; p53 inactivated by dominant negative mutant GSE56) was “did not depend on the presence of PFT-α; also recorded: has no effect on survival of p53-deficient cells after genotoxic stress” and the “sensitivity of C8 cells to UV irradiation” value (C8 cells [2]; p53 wild-type C8) was “depends on the presence of pifithrin-alpha”. For the same compound, the “DNA-binding activity of p53” value (p53 [3]) was “does not affect DNA-binding activity of p53”, the “survival at higher, lethal doses of irradiation” value (p53 [4]; 2.2 mg/kg i.p. five minutes prior to irradiation) was “Significant protection; also recorded: rescue mice from lethal doses of gamma radiation using a single i.p. injection” and the “survival at 60% killing doses of gamma irradiation” value (p53 [4]; 8 Gy C57BL, 6 Gy Balb/c, 2.2 mg/kg i.p. five minutes prior to irradiation, 2.2 mg/kg) was “completely rescued mice of both strains; also recorded: strong rescuing effect in both mouse strains”. For the same compound, the “body weight after irradiation” value (p53 [4]; C57BL6, 8 Gy) was “lost less weight than irradiated mice that were not pretreated with the drug; also recorded: abrogated the gradual loss of weight”, the “survival of p53-null mice after lethal irradiation” value (p53 [4]; p53-null mice) was “did not protect p53-null mice from lethal irradiation” and the “apoptosis in skin and small intestine of gamma-irradiated mice” value (p53 [5]; 2.2 mg/kg i.p.) was “inhibits apoptosis in the skin and small intestine of gamma-irradiated mice”. For the same compound, the “p53-mediated growth arrest in vivo (14C-thymidine incorporation)” value (p53 [5]) was “less pronounced; also recorded: suppress p53-dependent radiation-induced growth arrest in rapidly proliferating mouse tissues”, the “p53-mediated growth arrest in vivo (14C-thymidine incorporation)” value (p53 [5]; listed as pifithrin-alpha) was “capable of blocking p53-mediated growth arrest in vivo” and the “apoptosis in crypts and villi of the small intestine (TUNEL)” value (p53 [6]) was “abrogated”. The “protective effect, 3-hour incubation after UV treatment” value (C8 cells [7]) was “pronounced protective effect”, the “protective effect, 24-hour incubation” value (C8 cells [7]) was “maximal protection” and the “protective effect, administered before (up to 18 hours) and removed immediately before UV” value (C8 cells [7]) was “little to no protective effect”. For the same compound, the “rescue from apoptosis, administered three hours after UV irradiation” value (C8 cells [7]) was “did not rescue UV-irradiated cells from apoptosis”, the “tumors or pathological lesions in survivors / tumor incidence in irradiated animals” value (p53 [8]; 30 survivors rescued from lethal gamma irradiation, seven months after irradiation) was “no tumors or any other pathological lesions were found; also recorded: do not result in a high incidence of tumors in irradiated animals” and the “survival time after whole body radiation” value (p53 [8]; wild-type mice) was 300 days.
